This series can be described thus: Solvent selection: stepwise solvent addition, solubility judged visually.

Procedure: Solubility of 2-IB was determined in the following solvents: • 0.9% Sodium chloride in water • 5% Dextrose in water • N,N-dimethylacetamide • N,N-dimethylformamide • Dimethyl sulfoxide • Ethanol • Propolyene glycol • Polyethyleneglycol 400 • Corn oil
Approximately 10 mg of 2-IB was weighed into a 10 ml tube. Subsequently, small aliquots (100 μl-100 μl-200 μl-400 μl-800 μl-1600 μl-3200 μl) of the respective solvents were added stepwise. After each addition, the solution was mixed intensively and visually judged for solubility.
Therefore the experiment was repeated for propylene glycol but with addition of 100 μl 1N hydrochloric acid after 200 μl propylene glycol (i.e. 10 mg 2-IB+200 μl propylene glycol+100 μl 1N hydrochloric acid).
When an acidified 2-IB formulation in 5% dextrose is prepared, the pH after acidification is approximately 2 for nominal 2-IB concentrations in the range 1-5 mg/ml.

`N=C1N[C@H]2[C@H](CS[C@H]2CCCCC(=O)O)N1` [Formulation 2-IB, 2-iminobiotin]: the “concentration of fully dissolved and stable solution” value (10 mg 2-IB+200 μl propylene glycol+100 μl 1N hydrochloric acid) was found to be 33 mg/mL. Further, the “solubility, visually judged” value reads like this: (10 mg in 6400 μl (1.6 mg/ml) of 0.9% NaCl, 5% dextrose, DMA, DMF, DMSO, ethanol, propylene glycol, PEG 400 or corn oil) “not sufficiently soluble in any of these solvents”; (same solvents after addition of 100 μl of 1N hydrochloric acid) “fully dissolved in all solvents”. Also, the “effect of addition of water” value (33 mg/ml propylene glycol/hydrochloric acid formulation) is “immediately resulted in precipitation of 2-IB”. The “precipitation, visual observation” value (acidified 2-IB in 5% dextrose neutralized to pH 7) is given as “nearly all 2-IB has precipitated out of solution”. Where the note is “acidified 2-IB in 5% dextrose, nominal 1-5 mg/ml, 0.1% sodium hydroxide”, the “pH up to which partial neutralization is possible before precipitation” value is 3-3.5.
